Like-named read-outs stand apart in the source and are kept apart here. Peptide text beside a SMILES is read from it. A value given as a limit tells only on which side of the number the result lay.

One assay concerns the target T1, CRF2R (Homo sapiens, UniProt Q13324).
T1 sequence (Q13324 1-411): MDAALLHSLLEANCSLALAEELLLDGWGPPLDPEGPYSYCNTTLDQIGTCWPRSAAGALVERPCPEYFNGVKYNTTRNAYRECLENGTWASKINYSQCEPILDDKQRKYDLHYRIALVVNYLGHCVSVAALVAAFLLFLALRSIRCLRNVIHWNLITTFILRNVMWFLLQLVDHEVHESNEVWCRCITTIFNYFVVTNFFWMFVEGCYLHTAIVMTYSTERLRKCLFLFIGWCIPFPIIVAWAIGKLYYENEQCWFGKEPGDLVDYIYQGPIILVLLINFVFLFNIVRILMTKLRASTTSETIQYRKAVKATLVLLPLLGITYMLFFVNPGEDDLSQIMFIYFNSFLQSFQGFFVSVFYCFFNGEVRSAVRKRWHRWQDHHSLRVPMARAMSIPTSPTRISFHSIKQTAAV
Briefly: CRF2R agonist activation (EC50 / Emax), called comparative CRF binding. In kind it is cell-based. In outline: (§1)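 Peptides are tested on cells bearing CRF1R or CRF2R, full length or as ligand-binding-domain constructs coupled to reporters or G proteins. Activation is scored by cAMP rise, measured in lysates or by CRE-reporter output, against vehicle control.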

The target in the next assay is T2, CRF1R (Homo sapiens, UniProt P34998).
T2 sequence (P34998 24-415): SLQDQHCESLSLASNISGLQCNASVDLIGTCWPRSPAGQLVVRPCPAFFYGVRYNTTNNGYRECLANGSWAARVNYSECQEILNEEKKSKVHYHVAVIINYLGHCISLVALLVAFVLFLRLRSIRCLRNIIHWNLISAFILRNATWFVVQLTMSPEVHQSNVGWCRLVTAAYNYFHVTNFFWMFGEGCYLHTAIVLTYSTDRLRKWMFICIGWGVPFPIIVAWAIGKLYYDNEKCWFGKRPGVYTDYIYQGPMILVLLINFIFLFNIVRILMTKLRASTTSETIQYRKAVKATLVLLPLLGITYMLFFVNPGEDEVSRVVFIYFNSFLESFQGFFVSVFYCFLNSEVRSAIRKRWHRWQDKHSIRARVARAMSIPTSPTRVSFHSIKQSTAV
Description: CRF1R agonist activation (EC50 / Emax), called comparative CRF binding. The format is cell-based. In outline: as §1

For `CC[C@H](C)[C@H](NC(=O)[C@H](CCCNC(=N)N)NC(=O)[C@H](C)NC(=O)[C@H](CC(N)=O)NC(=O)[C@H](CCC(N)=O)NC(=O)[C@H](CCC(=O)O)NC(=O)[C@H](C)NC(=O)[C@H](CCCNC(=N)N)NC(=O)[C@H](CCC(=O)O)NC(=O)[C@H](CCCNC(=N)N)NC(=O)[C@H](CCC(N)=O)NC(=O)[C@H](CO)NC(=O)[C@H](CCC(N)=O)NC(=O)[C@@H](NC(=O)[C@H](CCCCN)NC(=O)[C@H](CCC(=O)O)NC(=O)[C@H](CC(C)C)NC(=O)[C@H](CCC(=O)O)NC(=O)[C@H](CC(C)C)NC(=O)[C@H](CC(C)C)NC(=O)[C@@H](NC(=O)[C@H](CCCNC(=N)N)NC(=O)[C@H](CC(C)C)NC(=O)[C@H](CC(C)C)NC(=O)[C@H](Cc1ccccc1)NC(=O)[C@H](CC(C)C)NC(=O)[C@@H]1CCCN1C(=O)[C@@H](NC(=O)[C@H](CC(=O)O)NC(=O)[C@@H](NC(=O)[C@H](CO)NC(=O)[C@H](CC(C)C)NC(=O)[C@H](CO)NC(=O)[C@@H]1CCCN1C(=O)[C@H](CC(N)=O)NC(=O)[C@@H](N)CC(=O)O)[C@@H](C)CC)C(C)C)[C@@H](C)O)[C@@H](C)O)C(=O)N[C@@H](Cc1ccccc1)C(=O)N[C@@H](C)C(=O)N[C@@H](CCCNC(=N)N)C(=O)N[C@H](C(N)=O)C(C)C` [compound 385] (H-DNPSLSIDVPLFLLRTLLELEKTQSQRERAEQNARIFARV-NH2; N-terminus assumed), the EC50 at CRF2R was 10.3 nM; on CRF1R, at least 1000 nM. Besides, the Emax was determined as 100% on CRF2R (read-out: CRF2R Emax) and 46% at CRF1R (read-out: CRF1R Emax).

As to `CC[C@H](C)[C@H](NC(=O)[C@H](CCCNC(=N)N)NC(=O)[C@H](C)NC(=O)[C@H](CC(N)=O)NC(=O)[C@H](CCC(N)=O)NC(=O)[C@H](CCC(=O)O)NC(=O)[C@H](C)NC(=O)[C@H](CCCNC(=N)N)NC(=O)[C@H](CCC(=O)O)NC(=O)[C@H](CCCNC(=N)N)NC(=O)[C@H](CCC(N)=O)NC(=O)[C@H](CO)NC(=O)[C@H](CCC(N)=O)NC(=O)[C@@H](NC(=O)[C@H](CCCCN)NC(=O)[C@H](CCC(=O)O)NC(=O)[C@H](CC(C)C)NC(=O)[C@H](CCC(=O)O)NC(=O)[C@H](CC(C)C)NC(=O)[C@H](CC(C)C)NC(=O)[C@@H](NC(=O)[C@H](CCCNC(=N)N)NC(=O)[C@H](CC(C)C)NC(=O)[C@H](CC(C)C)NC(=O)[C@H](Cc1ccccc1)NC(=O)[C@H](Cc1ccccc1)NC(=O)[C@@H]1CCCN1C(=O)[C@@H](NC(=O)[C@H](CC(=O)O)NC(=O)[C@@H](NC(=O)[C@H](CO)NC(=O)[C@H](CC(C)C)NC(=O)[C@H](CO)NC(=O)[C@@H]1CCCN1C(=O)[C@H](CC(N)=O)NC(=O)[C@@H](N)CC(=O)O)[C@@H](C)CC)C(C)C)[C@@H](C)O)[C@@H](C)O)C(=O)N[C@@H](Cc1ccccc1)C(=O)N[C@@H](C)C(=O)N[C@@H](CCCNC(=N)N)C(=O)N[C@H](C(N)=O)C(C)C` [compound 386] (H-DNPSLSIDVPFFLLRTLLELEKTQSQRERAEQNARIFARV-NH2; N-terminus assumed), the EC50 on CRF2R (read-out: CRF2R EC50) is 8.7 nM; on CRF1R (read-out: CRF1R EC50), at least 1000 nM. In addition, the Emax on CRF2R (read-out: CRF2R Emax) is 96%; on CRF1R (read-out: CRF1R Emax), 78.2%.

On to `CC[C@H](C)[C@H](NC(=O)[C@H](CCCNC(=N)N)NC(=O)[C@H](C)NC(=O)[C@H](CC(N)=O)NC(=O)[C@H](CCC(N)=O)NC(=O)[C@H](CCC(=O)O)NC(=O)[C@H](C)NC(=O)[C@H](CCCNC(=N)N)NC(=O)[C@H](CCC(=O)O)NC(=O)[C@H](CCCNC(=N)N)NC(=O)[C@H](CCC(N)=O)NC(=O)[C@H](CO)NC(=O)[C@H](CCC(N)=O)NC(=O)[C@@H](NC(=O)[C@H](CCCCN)NC(=O)[C@H](CCC(=O)O)NC(=O)[C@H](CC(C)C)NC(=O)[C@H](CCC(=O)O)NC(=O)[C@H](CC(C)C)NC(=O)[C@H](CC(C)C)NC(=O)[C@@H](NC(=O)[C@H](CCCNC(=N)N)NC(=O)[C@H](CC(C)C)NC(=O)[C@H](CC(C)C)NC(=O)[C@H](Cc1ccc(O)cc1)NC(=O)[C@H](CC(C)C)NC(=O)[C@@H]1CCCN1C(=O)[C@@H](NC(=O)[C@H](CC(=O)O)NC(=O)[C@@H](NC(=O)[C@H](CO)NC(=O)[C@H](CC(C)C)NC(=O)[C@H](CO)NC(=O)[C@@H]1CCCN1C(=O)[C@H](CC(N)=O)NC(=O)[C@@H](N)CC(=O)O)[C@@H](C)CC)C(C)C)[C@@H](C)O)[C@@H](C)O)C(=O)N[C@@H](Cc1ccccc1)C(=O)N[C@@H](C)C(=O)N[C@@H](CCCNC(=N)N)C(=O)N[C@H](C(N)=O)C(C)C` [compound 387] (H-DNPSLSIDVPLYLLRTLLELEKTQSQRERAEQNARIFARV-NH2; N-terminus assumed), for which the figures for the EC50 on CRF2R (read-out: CRF2R EC50) and at CRF1R (read-out: CRF1R EC50) were 17.8 nM and at least 1000 nM, respectively. In addition, the values for the Emax at CRF2R (read-out: CRF2R Emax) and on CRF1R (read-out: CRF1R Emax) were 100% and 50.1%, respectively.

For the compound `CC[C@H](C)[C@H](NC(=O)[C@H](CO)NC(=O)[C@H](CC(C)C)NC(=O)[C@H](CO)NC(=O)[C@@H]1CCCN1C(=O)[C@H](CC(N)=O)NC(=O)[C@@H](N)CC(=O)O)C(=O)N[C@@H](CC(=O)O)C(=O)N[C@@H](CC(C)C)C(=O)N[C@H](C(=O)N[C@@H](Cc1ccccc1)C(=O)N[C@@H](Cc1c[nH]cn1)C(=O)N[C@@H](CC(C)C)C(=O)N[C@@H](CC(C)C)C(=O)N[C@@H](CCCNC(=N)N)C(=O)N[C@H](C(=O)N[C@@H](CC(C)C)C(=O)N[C@@H](CC(C)C)C(=O)N[C@@H](CCC(=O)O)C(=O)N[C@@H](CC(C)C)C(=O)N[C@@H](C)C(=O)N[C@@H](CCCNC(=N)N)C(=O)N[C@H](C(=O)N[C@@H](CCC(N)=O)C(=O)N[C@@H](CO)C(=O)N[C@@H](CCC(N)=O)C(=O)N[C@@H](CCCNC(=N)N)C(=O)N[C@@H](CCC(=O)O)C(=O)N[C@@H](CCCNC(=N)N)C(=O)N[C@@H](C)C(=O)N[C@@H](CCC(=O)O)C(=O)N[C@@H](CCC(N)=O)C(=O)N[C@@H](CC(N)=O)C(=O)N[C@@H](CCCNC(=N)N)C(=O)N[C@H](C(=O)N[C@H](C(=O)N[C@@H](Cc1ccccc1)C(=O)N[C@@H](CC(=O)O)C(=O)N[C@@H](CO)C(=O)N[C@H](C(N)=O)C(C)C)[C@@H](C)CC)[C@@H](C)CC)[C@@H](C)O)[C@@H](C)O)[C@@H](C)O` [hUcnI, human urocortin I, reference compound] (H-DNPSLSIDLTFHLLRTLLELARTQSQRERAEQNRIIFDSV-NH2), the Emax at CRF2R (read-out: CRF2R (Emax %), Emax) stood at 100%; on CRF1R (read-out: CRF1R (Emax %), Emax) it was 100%.

As to `CC[C@H](C)[C@H](NC(=O)[C@H](CO)NC(=O)[C@H](CC(C)C)NC(=O)[C@H](CO)NC(=O)[C@@H]1CCCN1C(=O)[C@H](CC(N)=O)NC(=O)[C@@H](N)CC(=O)O)C(=O)N[C@@H](CC(=O)O)C(=O)N[C@@H](CC(C)C)C(=O)N[C@H](C(=O)N[C@@H](Cc1ccccc1)C(=O)N[C@@H](Cc1cnc[nH]1)C(=O)N[C@@H](CC(C)C)C(=O)N[C@@H](CC(C)C)C(=O)N[C@@H](CCCNC(=N)N)C(=O)N[C@H](C(=O)N[C@@H](CC(C)C)C(=O)N[C@@H](CC(C)C)C(=O)N[C@@H](CCC(=O)O)C(=O)N[C@@H](CC(C)C)C(=O)N[C@@H](C)C(=O)N[C@@H](CCCNC(=N)N)C(=O)N[C@H](C(=O)N[C@@H](CCC(N)=O)C(=O)N[C@@H](CO)C(=O)N[C@@H](CCC(N)=O)C(=O)N[C@@H](CCCNC(=N)N)C(=O)N[C@@H](CCC(=O)O)C(=O)N[C@@H](CCCNC(=N)N)C(=O)N[C@@H](C)C(=O)N[C@@H](CCC(=O)O)C(=O)N[C@@H](CCC(N)=O)C(=O)N[C@@H](CC(N)=O)C(=O)N[C@@H](CCCNC(=N)N)C(=O)N[C@H](C(=O)N[C@H](C(=O)N[C@@H](Cc1ccccc1)C(=O)N[C@@H](CC(=O)O)C(=O)N[C@@H](CO)C(=O)N[C@H](C(N)=O)C(C)C)[C@@H](C)CC)[C@@H](C)CC)[C@@H](C)O)[C@@H](C)O)[C@@H](C)O` [hUcnI, human urocortin I, reference compound] (H-DNPSLSIDLTFHLLRTLLELARTQSQRERAEQNRIIFDSV-NH2), the EC50 is 3.52 nM at CRF2R and 9 nM at CRF1R (CRF1R EC50).

A word on the EC50: it is the concentration needed to bring the measured effect to its halfway point. For orientation: Emax means the size of the effect at its maximum, as opposed to the concentration needed.
